The text below walks through data of patent US20140011977A1, “CHIMERIC MOLECULES TO MODULATE GENE EXPRESSION” (Cold Spring Harbor Laboratory, priority 2000, published 2014).

The subject of one experiment is SMN2 pre-mRNA exon 7. The experiment in a line: S100 extract complementation in vitro splicing, SMN2 pre-mRNA. The class given is biochemical, human. How it is done: (§1) Finally, splicing of SNM1 and SMN2 pre-mRNAs in S100-complementation experiments was used to test the SR protein specificity of the ESEs. S100 extract is a post-nuclear, post-ribosomal fraction capable of supporting in vitro splicing only when complemented with one or more SR proteins. When the SMN pre-mRNAs were incubated in S100 extract alone, spliced products were barely detectable (FIG. 17b, lanes 5-8).
(§2) 5′ capped, T7 runoff transcripts from purified PCR products were uniformly labeled with [α-^32P] UTP, purified by denaturing PAGE, and spliced in HeLa cell nuclear or S100 extracts, as described. Briefly, 10 fmol of transcript was incubated in 12.5-μl standard splicing reactions containing 3 μl of nuclear extract or 2 μl of S100 extract complemented with 4 pmol of recombinant SC35 or SF2/ASF. The MgCl2 concentration was 2.4 mM for BRCA1 transcripts and 1.6 mM for SMN transcripts. After incubation at 30° C. for 4 hours, RNA was extracted and analyzed on 12% (BRCA1) or 8% (SMN) denaturing polyacrylamide gels, followed by autoradiography and phosphorimager analysis. Exon inclusion was calculated as a percentage of the total amount of spliced mRNAs, i.e., included mRNA×100/(included mRNA+skipped mRNA).

A further experiment relates to SMN1 pre-mRNA exon 7. Briefly: S100 extract complementation in vitro splicing, SMN1 pre-mRNA. The class given is biochemical, human. Particulars: S100 extract complemented with 4 pmol recombinant SR protein, 4 hours. As to the method:
as §1, §2

Another experiment deals with β-globin pre-mRNA. Briefly: S100 extract complementation with β-globin pre-mRNA. Particulars: data not shown. The class given is biochemical.

Regarding “SF2/ASF: recombinant human SR protein SF2/ASF used to complement S100 extract”, the “exon 7 inclusion, SMN2 pre-mRNA” value with SMN2 pre-mRNA exon 7 (S100 extract complemented with 4 pmol recombinant SR protein, 4 hours) was “much less efficiently”. In addition, the “exon 7 inclusion, SMN2 context, high concentrations of SR protein” value in the experiment with SMN2 pre-mRNA exon 7 (S100 extract, high concentrations, data not shown) is reported as “promoted significant inclusion”. In addition, the “exon 7 inclusion, SMN1 pre-mRNA” value in the experiment on SMN1 pre-mRNA exon 7 is listed as “promoted exon 7 inclusion”.

B1: SC35: recombinant human SR protein SC35 used to complement S100 extract (protein, UniProt Q01130 2-221, looked up)
Serine/arginine-rich splicing …: SYGRPPPDVEGMTSLKVDNLTYRTSPDTLRRVFEKYGRVGDVYIPRDRYTKESRGFAFVRFHDKRDAEDAMDAMDGAVLDGRELRVQMARYGRPPDSHHSRRGPPPRRYGGGGYGRRSRSPRRRRRSRSRSRSRSRSRSRSRYSRSKSRSRTRSRSRSTSKSRSARRSKSKSSSVSRSRSRSRSRSRSRSPPPVSKRESKSRSRSKSPPKSPEEEGAVSS
On to B1, for which the “complementation of S100 extract” value in the experiment with β-globin pre-mRNA was “efficiently complemented S100 extract”. The “exon 7 inclusion, SMN1 pre-mRNA” value in the experiment with SMN1 pre-mRNA exon 7 is “failed to drive exon 7 inclusion”.
